Results: patent US11407738B2 (Achillion Pharmaceuticals, Inc., priority 2015, dated 2022)

Each compound was assayed against Human Factor D (Homo sapiens (Human), UniProt P00746) (assay: Human Factor D assay). Conditions: Table 3; Factor D inhibition, substrate Z-L-Lys-SBzl.
Format: biochemical
Summary of the method: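 Serum-purified human factor D (80 nM final) preincubated 5 min at room temperature with test compound in 50 mM Tris, 1M NaCl, pH 7.5. Z-L-Lys-SBzl substrate and DTNB then added, each at 100 μM final. IC50 from nonlinear regression of reaction rate against compound concentration.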

Sequence of Human Factor D (P00746 26-253): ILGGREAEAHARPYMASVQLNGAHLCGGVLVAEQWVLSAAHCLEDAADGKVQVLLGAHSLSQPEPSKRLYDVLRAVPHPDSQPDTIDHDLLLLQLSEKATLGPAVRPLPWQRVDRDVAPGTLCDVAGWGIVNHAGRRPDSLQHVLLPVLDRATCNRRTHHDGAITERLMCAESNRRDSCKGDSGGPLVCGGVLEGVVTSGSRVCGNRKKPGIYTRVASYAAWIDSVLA

SMILES	IC50 [µM]
CO[C@@H]1CO[C@H]2[C@@H]1OC[C@H]2Oc1ncc(-c2ccc3c(c2)c(C(C)=O)cn3CC(=O)N2C[C@H](F)C[C@H]2C(=O)Nc2cccc(Br)n2)cn1 [Compound 508, (2S,4R)-1-(2-(3-Acetyl-5-(2-((3R,3aR,6R,6aR)-6-methoxyhexahydrofuro[3,2-b]furan-3-yloxy)pyrimidin-5-yl)-1H-indol-1-yl)acetyl)-N-(6-bromopyridin-2-yl)-4-fluoropyrrolidine-2-carboxamide]	< 1
CC(=O)c1nn(CC(=O)N2C[C@H](F)C[C@H]2C(=O)SCc2cccc(Cl)c2F)c2ccc(-c3cnc(C)nc3)cc12 [Compound 516, S-(3-Chloro-2-fluorobenzyl) (2S,4R)-1-(2-(3-acetyl-5-(2-methylpyrimidin-5-yl)-1H-indazol-1-yl)acetyl)-4-fluoropyrrolidine-2-carbothioate]	1 to 10

Same assay, conditions: Table 4; Factor D inhibition, substrate Z-L-Lys-SBzl

SMILES	IC50 [µM]
CC(=O)c1nn(CC(=O)N2CCC[C@@H](CNC(=O)c3ncc(Br)s3)C2)c2ccc(-c3cnc(C)nc3)cc12 [Compound 548, (S)—N-((1-(2-(3-Acetyl-5-(2-methylpyrimidin-5-yl)-1H-indazol-1-yl)acetyl)piperidin-3-yl)methyl)-5-bromothiazole-2-carboxamide]	> 10
CC(=O)c1nn(CC(=O)N2C[C@H](F)C[C@H]2CC(=O)Nc2cccc(Cl)c2F)c2ccc(-c3cnc(C)nc3)cc12 [Compound 576, 2-((2R,4R)-1-(2-(3-Acetyl-5-(2-methylpyrimidin-5-yl)-1H-indazol-1-yl)acetyl)-4-fluoropyrrolidin-2-yl)-N-(3-chloro-2-fluorophenyl)acetamide]	> 10
CC(=O)c1nn(CC(=O)N2C[C@H](F)C[C@H]2CNS(=O)(=O)c2cccc(Cl)c2F)c2ccc(-c3cnc(C)nc3)cc12 [Compound 563, N-(((2S,4R)-1-(2-(3-acetyl-5-(2-methylpyrimidin-5-yl)-1H-indazol-1-yl)acetyl)-4-fluoropyrrolidin-2-yl)methyl)-3-chloro-2-fluorobenzene-sulfonamide]	< 1
CC(=O)c1nn(CC(=O)N2C[C@H](F)C[C@H]2C(=O)NCC#N)c2ccc(-c3cnc(C)nc3)cc12 [Compound 601]	< 1
CC(=O)c1nn(CC(=O)N2C[C@H](F)C[C@H]2C(=O)Nc2cccc(-c3ccc4scnc4c3)c2F)c2ccc(-c3cnc(C)nc3)cc12 [Compound 638, (2S,4R)-1-(2-(3-acetyl-5-(2-methylpyrimidin-5-yl)-1H-indazol-1-yl)acetyl)-N-(3-(benzo[d]thiazol-5-yl)-2-fluorophenyl)-4-fluoropyrrolidine-2-carboxamide]	< 1
CC(=O)c1nn(CC(=O)N2C[C@H](F)C[C@H]2[C@H](O)Cc2cccc(Br)n2)c2ccc(-c3cnc(C)nc3)cc12 [Compound 540, 2-(3-Acetyl-5-(2-methylpyrimidin-5-yl)-1H-indazol-1-yl)-1-((2S,4R)-2-((R)-2-(6-bromopyridin-2-yl)-1-hydroxyethyl)-4-fluoropyrrolidin-1-yl)ethanone]	1 to 10
Cc1cccc(NC(=O)[C@@H]2CCC(F)CCN2C(=O)Cn2cc(C(N)=O)c3cc(-c4ccc(F)nc4)ccc32)n1 (stereo partly drawn) [Compound 590, 1-(2-((2S)-5-Fluoro-2-((6-methylpyridin-2-yl)carbamoyl)azepan-1-yl)-2-oxoethyl)-5-(6-fluoropyridin-3-yl)-1H-indole-3-carboxamide]	> 10
CC(=O)c1nn(CC(=O)N2C[C@H](F)C[C@H]2CNC(=O)c2cccc(Cl)c2F)c2ccc(-c3cnc(C)nc3)cc12 [Compound 562, N-(((2S,4R)-1-(2-(3-acetyl-5-(2-methylpyrimidin-5-yl)-1H-indazol-1-yl)acetyl)-4-fluoropyrrolidin-2-yl)methyl)-3-chloro-2-fluorobenzamide]	> 10
CC(=O)c1nn(CC(=O)NCc2ccccc2CC(=O)O)c2ccc(-c3cnc(C)nc3)cc12 [Compound 536, 2-(2-((2-(3-acetyl-5-(2-methylpyrimidin-5-yl)-1H-indazol-1-yl)acetamido)meth-yl)phenyl)acetic acid]	> 10
COc1ncc(-c2ccc3c(c2)c(C(C)=O)nn3CC(=O)N2C[C@H](F)C[C@H]2C(=O)Nc2nc(Br)ccc2C)cn1 [Compound 554, (2S,4R)-1-(2-(3-acetyl-5-(2-methoxypyrimidin-5-yl)-1H-indazol-1-yl)acetyl)-N-(6-bromo-3-methylpyridin-2-yl)-4-fluoropyrrolidine-2-carboxamide]	< 1
COP(=O)(CC(=O)c1nn(CC(=O)N2C[C@H](F)C[C@H]2C(=O)Nc2cccc(Br)n2)c2ccc(-c3cnc(C)nc3)cc12)OC [Compound 625, dimethyl (2-(1-(2-((2S,4R)-2-((6-bromopyridin-2-yl)carbamoyl)-4-fluoropyrrolidin-1-yl)-2-oxoethyl)-5-(2-methylpyrimidin-5-yl)-1H-indazol-3-yl)-2-oxoethyl)phos-phonate]	> 10
CC(=O)c1nn(CC(=O)N2C[C@H](F)C[C@H]2CC(=O)O)c2ccc(-c3cnc(C)nc3)cc12 [Compound 577, 2-((2R,4R)-1-(2-(3-Acetyl-5-(2-methylpyrimidin-5-yl)-1H-indazol-1-yl)acetyl)-4-fluoropyrrolidin-2-yl)acetic Acid]	> 10
Cc1cccc(C[C@@H](O)[C@H]2C[C@@H](F)CN2C(=O)Cn2cc(C(N)=O)c3cc(-c4cnc(C)nc4)ccc32)n1 [Compound 561, 1-(2-((2R,4R)-4-Fluoro-2-((R)-1-hydroxy-2-(6-methylpyridin-2-yl)ethyl)pyrrolidin-1-yl)-2-oxoethyl)-5-(2-methylpyrimidin-5-yl)-1H-indole-3-carboxamide]	> 10
CC(=O)c1nn(CC(=O)N2C[C@H](F)C[C@H]2c2nnc(-c3cccc(Cl)c3F)o2)c2ccc(-c3cnc(C)nc3)cc12 [Compound 574, 2-(3-Acetyl-5-(2-methylpyrimidin-5-yl)-1H-indazol-1-yl)-1-((2S,4R)-2-(5-(3-chloro-2-fluorophenyl)-1,3,4-oxadiazol-2-yl)-4-fluoropyrrolidin-1-yl)ethan-1-one]	1 to 10
CC[C@H](NC(=O)Cn1nc(C(C)=O)c2cc(-c3cnc(C)nc3)ccc21)C(=O)Nc1cccc(Br)n1 [Compound 600]	< 1
Cc1cccc(NC(=O)[C@@H]2CCC(F)CCN2C(=O)Cn2cc(C(N)=O)c3cc(-c4cnc(C)nc4)ccc32)n1 (stereo partly drawn) [Compound 578, 1-(2-((2S)-5-Fluoro-2-((6-methylpyridin-2-yl)carbamoyl)azepan-1-yl)-2-oxoethyl)-5-(2-methylpyrimidin-5-yl)-1H-indole-3-carboxamide]	> 10
CC(=O)c1nn(CC(=O)N2C[C@H](F)C[C@H]2C(=O)NC2CCN(C(=O)c3cc(Cl)c[nH]3)CC2)c2ccc(-c3cnc(C)nc3)cc12 [Compound 532, (2S,4R)-1-(2-(3-acetyl-5-(2-methylpyrimidin-5-yl)-1H-indazol-1-yl)acetyl)-N-(1-(4-chloro-1H-pyrrole-2-carbonyl)piperidin-4-yl)-4-fluoropyrrolidine-2-carboxamide]	< 1
CC(=O)c1nn(CC(=O)N2C[C@H](F)C[C@H]2C(=O)Nc2cccc(-c3cc(F)ccc3S(C)(=O)=O)c2F)c2ccc(-c3cnc(C)nc3)cc12 [Compound 539, (2S,4R)-1-(2-(3-acetyl-5-(2-methylpyrimidin-5-yl)-1H-indazol-1-yl)acetyl)-N-(2,5′-difluoro-2′-(methylsulfonyl)-[1,1′-biphenyl]-3-yl)-4-fluoropyrrolidine-2-carboxamide]	< 1
